Test results as given in patent US9902696B2, “1,4-substituted piperidine derivatives” (Cephalon, Inc., priority 2015, dated 2018).

Target: T1, recombinant human baculovirus-expressed GST-tagged FASN (Homo sapiens, UniProt P49327)
T1 construct: GST
Test: FASN enzyme activity assay, fluorescence-based detection of CoA with CPM
Assay type: biochemical
Conditions: 5 nM FASN, 150 μM NADPH, 10 μM acetyl-CoA, 25 μM malonyl-CoA, 90 minutes incubation; read-out: IC50 data for Compounds of Formulae I-V/V(a): Activity
Description: FASN Enzyme activity may be determined by detecting coenzyme A (CoA), a product of FASN-catalyzed synthesis of palmitate from acetyl-CoA and malonyl-CoA with NADPH as a cofactor. The assay is fluorescence-based and measures the interaction of free CoA with 7-diethylamino-3-(4′-malemimidylphenyl)-4-methylcoumarin (CPM; Life Technologies, CA) as described in Chung et al (2008). The coumarin derivative CPM contains a thiol-reactive maleimide that becomes fluorescent upon interaction with the sulfhydryl group of CoA.
For the example compounds described herein, the reaction was performed in 384-well low volume non-binding plates (Corning, N.Y.) using recombinant human baculovirus-expressed GST-tagged FASN. The 20-μL assay mixture contained 50 mM HEPES (pH 7.5), 5 nM FASN, 150 μM NADPH (Sigma, St. Louis, Mo.), 10 μM acetyl-CoA (Sigma), 25 μM malonyl-CoA (Sigma) and test compound [diluted in dimethyl sulfoxide (DMSO); 0.5% DMSO final in assay after 100 nL addition]. See, Chung et al.; “A fluorescence-based thiol quantification assay for ultra-high-throughput screening for inhibitors of coenzyme A production,” Assay Drug Dev Tech 2008; 6:361-374.
The reaction was initiated by adding malonyl-CoA, followed by incubation for 90 minutes at […]. A stock solution of the CPM reagent was prepared in DMSO at […] and stored at […]. To detect CoA produced in the FASN reaction, the CPM stock was diluted to […] in 70% ethanol and added at 4 μL/well to the assay plate. The reaction mixture was then incubated for 30 minutes. Fluorescence was measured using the EnVision™ 2102 multi-label plate reader (PerkinElmer, Waltham, Mass.) utilizing a general dual mirror, a 390 nm excitation filter and a 530 nm emission filter. Data analysis was performed using ActivityBase (IDBS, Guilford, UK). IC50 values were calculated by plotting the percent inhibition versus log 10 of the concentration of the compound, and fitting to the nonlinear regression sigmoidal dose-response (variable slope) equation in XLFit (IDBS).

T1 sequence (P49327 whole entry): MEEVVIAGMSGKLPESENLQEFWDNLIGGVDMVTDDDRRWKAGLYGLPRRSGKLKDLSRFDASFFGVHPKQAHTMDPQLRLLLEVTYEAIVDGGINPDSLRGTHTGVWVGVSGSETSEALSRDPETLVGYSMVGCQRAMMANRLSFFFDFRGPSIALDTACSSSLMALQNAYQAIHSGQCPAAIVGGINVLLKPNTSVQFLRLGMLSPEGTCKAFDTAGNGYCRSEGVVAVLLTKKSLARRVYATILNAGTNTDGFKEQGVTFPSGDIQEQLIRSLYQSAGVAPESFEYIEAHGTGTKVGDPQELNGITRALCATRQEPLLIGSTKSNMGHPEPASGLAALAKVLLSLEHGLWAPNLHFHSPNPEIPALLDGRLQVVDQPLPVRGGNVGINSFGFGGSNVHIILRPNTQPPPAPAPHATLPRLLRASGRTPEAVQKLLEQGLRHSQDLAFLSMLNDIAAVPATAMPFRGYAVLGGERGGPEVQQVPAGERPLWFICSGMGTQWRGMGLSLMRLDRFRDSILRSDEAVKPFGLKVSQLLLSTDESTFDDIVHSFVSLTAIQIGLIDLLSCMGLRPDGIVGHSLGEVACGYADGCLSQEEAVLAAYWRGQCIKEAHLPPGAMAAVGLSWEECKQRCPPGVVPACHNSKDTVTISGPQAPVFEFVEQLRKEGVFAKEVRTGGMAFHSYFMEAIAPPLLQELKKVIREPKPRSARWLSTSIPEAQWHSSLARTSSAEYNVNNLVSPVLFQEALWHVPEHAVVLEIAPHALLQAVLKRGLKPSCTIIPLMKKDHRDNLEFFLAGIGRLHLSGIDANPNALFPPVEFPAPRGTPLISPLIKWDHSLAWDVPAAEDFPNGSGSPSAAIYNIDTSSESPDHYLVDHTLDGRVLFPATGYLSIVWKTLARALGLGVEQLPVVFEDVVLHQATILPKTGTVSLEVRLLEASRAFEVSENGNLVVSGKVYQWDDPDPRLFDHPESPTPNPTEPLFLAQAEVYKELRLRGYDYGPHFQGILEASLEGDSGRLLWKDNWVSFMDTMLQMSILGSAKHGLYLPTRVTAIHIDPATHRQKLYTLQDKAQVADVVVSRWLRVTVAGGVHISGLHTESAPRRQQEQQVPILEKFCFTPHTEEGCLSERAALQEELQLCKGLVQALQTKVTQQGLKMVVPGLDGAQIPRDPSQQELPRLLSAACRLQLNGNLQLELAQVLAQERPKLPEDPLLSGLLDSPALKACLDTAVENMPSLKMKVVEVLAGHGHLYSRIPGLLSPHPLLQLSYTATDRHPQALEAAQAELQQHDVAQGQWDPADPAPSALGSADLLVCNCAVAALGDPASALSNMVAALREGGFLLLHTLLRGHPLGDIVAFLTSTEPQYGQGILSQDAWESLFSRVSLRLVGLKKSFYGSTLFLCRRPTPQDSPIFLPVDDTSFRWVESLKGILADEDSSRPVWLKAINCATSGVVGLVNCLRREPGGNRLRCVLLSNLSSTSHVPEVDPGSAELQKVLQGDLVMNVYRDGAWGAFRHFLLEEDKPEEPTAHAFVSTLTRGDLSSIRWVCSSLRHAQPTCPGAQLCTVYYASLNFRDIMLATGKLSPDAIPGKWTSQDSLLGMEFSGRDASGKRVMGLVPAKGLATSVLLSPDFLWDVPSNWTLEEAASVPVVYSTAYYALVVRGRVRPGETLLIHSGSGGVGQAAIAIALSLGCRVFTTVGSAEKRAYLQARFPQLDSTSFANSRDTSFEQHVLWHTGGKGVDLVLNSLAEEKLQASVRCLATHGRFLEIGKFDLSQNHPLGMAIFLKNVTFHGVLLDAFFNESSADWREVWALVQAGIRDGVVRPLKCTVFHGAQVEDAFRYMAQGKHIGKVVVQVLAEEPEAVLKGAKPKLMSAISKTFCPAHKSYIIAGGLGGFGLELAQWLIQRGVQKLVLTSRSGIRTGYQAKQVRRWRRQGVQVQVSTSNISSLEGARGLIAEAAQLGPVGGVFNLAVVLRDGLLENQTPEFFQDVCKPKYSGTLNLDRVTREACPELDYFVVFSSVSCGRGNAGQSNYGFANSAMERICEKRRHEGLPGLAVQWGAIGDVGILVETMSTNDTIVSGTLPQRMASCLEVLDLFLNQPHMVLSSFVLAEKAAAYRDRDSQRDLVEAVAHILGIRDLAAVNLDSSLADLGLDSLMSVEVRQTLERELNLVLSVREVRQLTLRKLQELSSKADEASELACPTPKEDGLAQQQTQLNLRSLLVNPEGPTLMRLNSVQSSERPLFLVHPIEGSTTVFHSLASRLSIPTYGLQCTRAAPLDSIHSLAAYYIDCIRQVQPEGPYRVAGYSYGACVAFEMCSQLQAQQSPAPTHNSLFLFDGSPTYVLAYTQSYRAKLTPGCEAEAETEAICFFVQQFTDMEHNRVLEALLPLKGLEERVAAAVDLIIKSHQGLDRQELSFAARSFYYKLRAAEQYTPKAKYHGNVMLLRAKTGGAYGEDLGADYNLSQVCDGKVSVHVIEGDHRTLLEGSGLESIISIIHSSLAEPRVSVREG

Structure (SMILES)	IC50 [µM]
COc1cc2cc(-c3ccc(OC4CCN(C(=O)C5CC5)CC4)cc3)cnc2cc1OC [Example 56, Cyclopropyl-{4-[4-(6,7-dimethoxyquinolin-3-yl)-phenoxy]-piperidin-1-yl}-methanone]	1 to 10
CCC(=O)N1CCC(Oc2ccc(-c3cnc4c(OC)cccc4c3)cc2)CC1 [Example 57, 1-{4-[4-(8-Methoxyquinolin-3-yl)-phenoxy]-piperidin-1-yl}-propan-1-one]	0.1 to 0.999
COc1cccc2cc(-c3ccc(OC4CCN(C(=O)C5CC5)CC4)cc3)cnc12 [Example 58, Cyclopropyl-{4-[4-(8-methoxyquinolin-3-yl)-phenoxy]-piperidin-1-yl}-methanone]	0.1 to 0.999
CCC(=O)N1CCC(Oc2ccc(-c3cnc4cc(C)ccc4c3)cc2)CC1 [Example 63, 1-{4-[4-(7-Methylquinolin-3-yl)-phenoxy]-piperidin-1-yl}-propan-1-one]	0.1 to 0.999
Cc1ccc2cc(-c3ccc(OC4CCN(C(=O)C5CC5)CC4)cc3)cnc2c1 [Example 64, Cyclopropyl-{4-[4-(7-methylquinolin-3-yl)-phenoxy]-piperidin-1-yl}-methanone]	0.1 to 0.999
CCC(=O)N1CCC(Oc2ccc(-c3cnc4ccccc4n3)cc2)CC1 [Example 66, 1-[4-(4-Quinoxalin-2-yl-phenoxy)-piperidin-1-yl]-propan-1-one]	0.1 to 0.999
O=C(C1CC1)N1CCC(Oc2ccc(-c3cnc4ccccc4n3)cc2)CC1 [Example 67, Cyclopropyl-[4-(4-quinoxalin-2-yl-phenoxy)-piperidin-1-yl]-methanone]	0.1 to 0.999
CONC(=O)N1CCC(Oc2ccc(-c3cnc4ccccc4c3C)cc2)CC1 [Example 82, 4-[4-(4-Methylquinolin-3-yl)-phenoxy]-piperidine-1-carboxylic acid methoxyamide]	0.001 to 0.099
CON(C)C(=O)N1CCC(Oc2ccc(-c3cnc4ccccc4c3C)cc2)CC1 [Example 83, 4-[4-(4-Methylquinolin-3-yl)-phenoxy]-piperidine-1-carboxylic acid methoxymethyl-amide]	0.001 to 0.099
CCNC(=O)N1CCC(Oc2ccc(-c3cnc4ccccc4c3C)cc2)CC1 [Example 84, 4-[4-(4-Methylquinolin-3-yl)-phenoxy]-piperidine-1-carboxylic acid ethylamide]	0.001 to 0.099
CNC(=O)N1CCC(Oc2ccc(-c3ccc4cccnc4c3OC)cc2)CC1 [Example 85, 4-[4-(8-Methoxyquinolin-7-yl)-phenoxy]-piperidine-1-carboxylic acid methylamide]	0.1 to 0.999
CCNC(=O)N1CCC(Oc2ccc(-c3ccc4cccnc4c3OC)cc2)CC1 [Example 86, 4-[4-(8-Methoxyquinolin-7-yl)-phenoxy]-piperidine-1-carboxylic acid ethylamide]	0.001 to 0.099
Cc1c(-c2ccc(OC3CCN(C(=O)NO)CC3)cc2)cnc2ccccc12 [Example 87, 4-[4-(4-Methylquinolin-3-yl)-phenoxy]-piperidine-1-carboxylic acid hydroxyamide]	1 to 10
CCNC(=O)N1CCC(Oc2ccc(-c3ccc4cccnc4c3C)cc2)CC1 [Example 88, N-ethyl-4-[4-(8-methyl-7-quinolyl)phenoxy]piperidine-1-carboxamide]	0.001 to 0.099
Cc1c(-c2ccc(OC3CCN(C(=O)N(C)C)CC3)cc2)ccc2cccnc12 [Example 89, N,N-dimethyl-4-[4-(8-methyl-7-quinolyl)phenoxy]piperidine-1-carboxamide]	0.001 to 0.099
CCOC(=O)N1CCC(Oc2ccc(-c3ccc4cccnc4c3C)cc2)CC1 [Example 90, Ethyl 4-[4-(8-methyl-7-quinolyl)phenoxy]piperidine-1-carboxylate]	0.1 to 0.999
CONC(=O)N1CCC(Oc2ccc(-c3ccc4cccnc4c3C)cc2)CC1 [Example 91, N-methoxy-4-[4-(8-methyl-7-quinolyl)phenoxy]piperidine-1-carboxamide]	0.001 to 0.099
Cc1c(-c2ccc(OC3CCN(C(=O)NC(C)C)CC3)cc2)ccc2cccnc12 [Example 92, N-Isopropyl-4-[4-(8-methyl-7-quinolyl)phenoxy]piperidine-1-carboxamide]	1 to 10
CCONC(=O)N1CCC(Oc2ccc(-c3ccc4cccnc4c3C)cc2)CC1 [Example 93, N-ethoxy-4-[4-(8-methyl-7-quinolyl)phenoxy]piperidine-1-carboxamide]	0.001 to 0.099

The remaining lines, values ahead:

IC50 [µM]	Structure (SMILES)
0.001 to 0.099	O=C(C1CC1)N1CCC(Oc2ccc(-c3ccc4cccnc4c3Cl)cc2)CC1 [Example 59, {4-[4-(8-Chloroquinolin-7-yl)-phenoxy]-piperidin-1-yl}-cyclopropyl-methanone]
0.001 to 0.099	CCC(=O)N1CCC(Oc2ccc(-c3cnc4ccccc4c3C)cc2)CC1 [Example 60]
0.001 to 0.099	Cc1c(-c2ccc(OC3CCN(C(=O)C4CC4)CC3)cc2)cnc2ccccc12 [Example 61]
0.001 to 0.099	Cc1c(-c2ccc(OC3CCN(C(=O)C4CCC4)CC3)cc2)cnc2ccccc12 [Example 62, Cyclobutyl-{4-[4-(4-methylquinolin-3-yl)-phenoxy]-piperidin-1-yl}-methanone]
0.001 to 0.099	Cc1c(-c2ccc(OC3CCN(C(=O)[C@H]4CCCO4)CC3)cc2)cnc2ccccc12 [Example 65, {4-[4-(4-Methylquinolin-3-yl)-phenoxy]-piperidin-1-yl}-(R)-tetrahydro-furan-2-yl-methanone]
0.001 to 0.099	O=C([C@H]1CCCO1)N1CCC(Oc2ccc(-c3cnc4ccccc4n3)cc2)CC1 [Example 68, [4-(4-Quinoxalin-2-yl-phenoxy)-piperidin-1-yl]-(R)-tetrahydrofuran-2-yl-methanone]
0.001 to 0.099	Cc1c(-c2ccc(OC3CCN(C(=O)[C@H]4CCCO4)CC3)cc2)ccc2cccnc12 [Example 69, {4-[4-(8-Methylquinolin-7-yl)-phenoxy]-piperidin-1-yl}-(R)-tetrahydro-furan-2-yl-methanone]
0.001 to 0.099	Cc1c(-c2ccc(OC3CCN(C(=O)[C@@H]4CCCO4)CC3)cc2)ccc2cccnc12 [Example 70, {4-[4-(8-Methylquinolin-7-yl)-phenoxy]-piperidin-1-yl}-(S)-tetrahydro-furan-2-yl-methanone]
0.001 to 0.099	O=C([C@H]1CCCO1)N1CCC(Oc2ccc(-c3cnc4ccccc4c3Cl)cc2)CC1 [Example 71, {4-[4-(4-Chloroquinolin-3-yl)-phenoxy]-piperidin-1-yl}-(R)-tetrahydro-furan-2-yl-methanone]
0.001 to 0.099	CC(=O)C(=O)N1CCC(Oc2ccc(-c3cnc4ccccc4c3C)cc2)CC1 [Example 72, 1-{4-[4-(4-Methylquinolin-3-yl)-phenoxy]-piperidin-1-yl}-propane-1,2-dione]
0.001 to 0.099	O=C(N1CCC(Oc2ccc(-c3cnc4ccccc4c3)cc2)CC1)N1CCCO1 [Example 73, Isoxazolidin-2-yl-[4-(4-quinolin-3-yl-phenoxy)-piperidin-1-yl]-methanone]
0.001 to 0.099	O=C(N1CCC(Oc2ccc(-c3cc4ccccc4cn3)cc2)CC1)N1CCCO1 [Example 74, [4-(4-Isoquinolin-3-yl-phenoxy)-piperidin-1-yl]-isoxazolidin-2-yl-methanone]
0.001 to 0.099	Cc1c(-c2ccc(OC3CCN(C(=O)N4CCCO4)CC3)cc2)ccc2cccnc12 [Example 75, Isoxazolidin-2-yl-{4-[4-(8-methyl-quinolin-7-yl)-phenoxy]-piperidin-1-yl}-methanone]
0.001 to 0.099	O=C(N1CCC(Oc2ccc(-c3cnc4ccccc4c3Cl)cc2)CC1)N1CCCO1 [Example 76, {4-[4-(4-Chloroquinolin-3-yl)-phenoxy]-piperidin-1-yl}-isoxazolidin-2-yl-methanone]
0.001 to 0.099	O=C(N1CCC(Oc2ccc(-c3ccc4cccnc4c3Cl)cc2)CC1)N1CCCO1 [Example 77, {4-[4-(8-Chloroquinolin-7-yl)-phenoxy]-piperidin-1-yl}-isoxazolidin-2-yl-methanone]
0.001 to 0.099	Cc1c(-c2ccc(OC3CCN(C(=O)N4CCCO4)CC3)cc2)cnc2ccccc12 [Example 78, Isoxazolidin-2-yl-{4-[4-(4-methylquinolin-3-yl)-phenoxy]-piperidin-1-yl}-methanone]
0.001 to 0.099	COc1c(-c2ccc(OC3CCN(C(=O)N4CCCO4)CC3)cc2)ccc2cccnc12 [Example 79, Isoxazolidin-2-yl-{4-[4-(8-methoxyquinolin-7-yl)-phenoxy]-piperidin-1-yl}-methanone]
0.001 to 0.099	Cc1ccc2cc(-c3ccc(OC4CCN(C(=O)N5CCCO5)CC4)cc3)cnc2c1 [Example 80, Isoxazolidin-2-yl-{4-[4-(7-methylquinolin-3-yl)-phenoxy]-piperidin-1-yl}-methanone]
0.001 to 0.099	O=C(N1CCC(Oc2ccc(-c3cnc4ccccc4n3)cc2)CC1)N1CCCO1 [Example 81, Isoxazolidin-2-yl-[4-(4-quinoxalin-2-yl-phenoxy)-piperidin-1-yl]-methanone]
